Data from ChEMBL document CHEMBL1157982, “Isolation, identification, and enantioselective synthesis of octane-1,3,7-triol: determination of its absolute configuration” (J Nat Prod, 1999).

Tests used:
[1] = system: Bacillus subtilis; experiment: Antibacterial activity against Bacillus subtilis at 5 umol/L; assay type: functional
[2] = Toxicity in rat; assay type: organism-based; conditions: in vivo

Compound `CCCCC[C@@H](O)CCO` has an Activity [1] of 50% and an LD50 [2] of 20000 mg/kg.
